Data published in patent US20180369210A1, “METHODS AND COMPOSITIONS FOR TREATING LYSOSOMAL STORAGE DISORDERS” (Lysosomal Therapeutics Inc., priority 2015, published 2018).

Target: T1, acid ceramidase (Homo sapiens, UniProt Q13510)
T1 sequence (Q13510 22-395): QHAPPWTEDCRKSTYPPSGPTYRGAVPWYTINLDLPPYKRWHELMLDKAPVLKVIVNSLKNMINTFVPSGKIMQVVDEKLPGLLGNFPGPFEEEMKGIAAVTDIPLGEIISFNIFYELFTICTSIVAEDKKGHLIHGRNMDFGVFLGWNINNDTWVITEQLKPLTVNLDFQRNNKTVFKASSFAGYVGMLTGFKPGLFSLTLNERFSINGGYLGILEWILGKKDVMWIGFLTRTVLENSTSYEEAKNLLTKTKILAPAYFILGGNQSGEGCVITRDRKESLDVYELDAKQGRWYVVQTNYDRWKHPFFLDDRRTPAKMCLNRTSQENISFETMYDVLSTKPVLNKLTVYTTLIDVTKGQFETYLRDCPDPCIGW
Assay: Acid ceramidase fluorescent intensity assay with fluorogenic substrate Rbm 14-12
Format: biochemical
Settings: cell lysates enriched with acid ceramidase; 1 hour preincubation; substrate Rbm 14-12 6.3 μM; pH 4.5; room temperature, 1 or two hours; read-out: average IC50 value for the 1 and 2 hour time points, inhibition of acid ceramidase activity
Method: Inhibition of acid ceramidase activity by compound 25 of Table 2 was evaluated in a fluorescent intensity assay using a fluorogenic substrate Rbm 14-12 […]. Compound 25 was incubated with cell lysates enriched with acid ceramidase for 1 hour in an assay buffer containing 50 mM NaOAc and 100 mM NaCl at pH 4.5. The reaction was initiated by the addition of the substrate at a final concentration of 6.3 μM and the mixture was incubated at room temperature for 1 or two hours. At the appropriate time, the reaction was quenched by the addition of methanol and treated with NaIO4 (fresh 2.5 mg/ml solution was made in 100 mM glycine/NaOH buffer, pH 10.6), followed by incubation for 1 hour at room temperature. Fluorescent intensity was measured using a plate reader at ex 355 nm and em 460 nm.

IC50: 250 to 500 nM
SMILES: O=C(NCCCCc1ccccc1)n1c(=O)oc2cc(-c3ccc(F)cc3)ccc21 [Compound 25, 6-(4-fluorophenyl)-2-oxo-N-(4-phenylbutyl)-1,3-benzoxazole-3-carboxamide]
